This is an account of results in US20180008629A1, “Compositions and Methods for Treating NLRP3 Inflammasome-Related Diseases and Disorders” (priority 2015, published 2018).

One experiment has as its target NLRP3 inflammasome (Mus musculus, UniProt Q8R4B8). Briefly: NLRP3 inflammasome activation in LPS primed BMDMs (caspase-1 / IL-1β immunoblot). Type of experiment: cell-based. Also noted: endogenous in cells; host or cells: mouse bone marrow derived macrophages (A1). To be noted: for effect on BHB's suppressive effects on ATP-induced NLRP3 inflammasome activation: co-treatment with BHB; for ATP-induced NLRP3 activation: BMDMs stimulated with LPS and ATP, caspase-1 immunoblot (FIG. 1B); for induction of caspase-1 cleavage by ROS damage: rotenone (10 μM) or hydrogen peroxide. For orientation: A western blot detects proteins with antibodies after separation by electrophoresis.

For another experiment, the system named is Gpr109a. The following applies: Taggart et al., 2005; cited from earlier work.
[1] abbreviates: WT and Gpr109a−/− BMDMs stimulated with LPS and ATP.

SMILES strings stand for the structures.

Sequence of NLRP3 inflammasome (Q8R4B8 whole entry): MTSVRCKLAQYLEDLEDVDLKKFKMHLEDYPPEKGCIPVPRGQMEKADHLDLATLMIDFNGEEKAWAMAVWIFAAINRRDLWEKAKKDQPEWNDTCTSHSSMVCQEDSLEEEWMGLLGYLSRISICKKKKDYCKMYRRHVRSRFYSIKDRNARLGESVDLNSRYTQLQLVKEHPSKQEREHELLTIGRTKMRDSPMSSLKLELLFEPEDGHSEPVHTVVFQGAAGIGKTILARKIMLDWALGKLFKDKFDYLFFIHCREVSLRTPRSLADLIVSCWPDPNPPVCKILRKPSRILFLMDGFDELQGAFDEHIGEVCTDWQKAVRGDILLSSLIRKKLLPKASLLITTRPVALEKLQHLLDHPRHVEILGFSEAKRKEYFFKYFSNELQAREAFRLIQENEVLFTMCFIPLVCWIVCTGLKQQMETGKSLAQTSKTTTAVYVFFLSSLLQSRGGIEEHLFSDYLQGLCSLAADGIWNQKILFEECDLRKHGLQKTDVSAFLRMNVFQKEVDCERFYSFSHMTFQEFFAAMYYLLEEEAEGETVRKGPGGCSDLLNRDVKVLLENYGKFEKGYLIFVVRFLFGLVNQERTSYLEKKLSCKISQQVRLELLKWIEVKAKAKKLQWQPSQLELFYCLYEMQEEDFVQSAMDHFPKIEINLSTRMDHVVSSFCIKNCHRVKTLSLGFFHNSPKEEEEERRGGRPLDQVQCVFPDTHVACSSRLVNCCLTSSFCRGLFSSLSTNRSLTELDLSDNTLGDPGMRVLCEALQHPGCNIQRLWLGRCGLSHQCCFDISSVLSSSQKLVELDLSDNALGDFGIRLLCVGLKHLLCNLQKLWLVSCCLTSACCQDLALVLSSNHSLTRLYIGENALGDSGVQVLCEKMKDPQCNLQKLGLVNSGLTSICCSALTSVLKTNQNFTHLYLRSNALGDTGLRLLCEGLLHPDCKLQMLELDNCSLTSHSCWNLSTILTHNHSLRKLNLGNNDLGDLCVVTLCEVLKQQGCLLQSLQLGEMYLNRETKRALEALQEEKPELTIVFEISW
Protocol for NLRP3 inflammasome: All steps were performed using sterile technique. Femurs were collected in RPMI (Life Technologies, Grand Island, N.Y.)+5% FBS (R5; Omega Scientific, Tarzana, Calif.). Both ends of the femur were then cut and the femur was flushed with R5. The bone marrow was centrifuge at 450 g for 5 min, the supernatant was decanted and red blood cells were lysed using ACK lysis buffer (Quality Biological, Gaithersburg, Md.). After neutralization with R5, bone marrow cells were centrifuged, resuspended in 10 ml of R5 and placed into a 6 well plate. Non-adherent cells were collected the following morning. The non-adherent cells were resuspended at 4×10^6 cells/ml in media consisting of 10 ml supernatant of non-adherent cells, 7.2 ml L929 conditioned media, 6.8 ml R5 and MCSF (long/ml; R&D Systems, Minneapolis, Minn.). An additional 2 ml of fresh media was added 4 d after isolation. Non-adherent cells were collected on day 7, separated by density gradient separation using Fico/Lite (Atlanta Biologicals, Flowery Branch, Ga.) and mononuclear cells were collected. Cells were rinsed twice with Dulbecco's PBS+2% FBS, and resuspended at 1×10^6 cells/ml. Cells were treated with ultrapure LPS (Invivogen, San Diego, Calif.) alone or in combination with 5 mM ATP (Sigma, St. Louis, Mo.) or 200 μM palmitate-BSA (Sigma). The BMDMs were also primed with ultrapure lipid A (10 μg/ml; Invivogen, San Diego, Calif.), lipoteichoic acid (10 μg/ml; Invivogen), or Pam3-CSK4 (10 μg/ml; Invivogen) for 4 hour and stimulated with various NLRP3 activators (ATP 5 mM; Sigma, MSU 250 ug/ml; Invivogen, Silica; 200 ug/ml; Invivogen, sodium palmitate; 200 μM; Sigma, ceramide C6 80 μg/ml; Cayman, and sphingosine 40 μM; Cayman, Ann Arbor, Mich.) for 1 hour together with D-BHB or L-(BHB) at indicated concentration. The cell supernatants and cell lysates were collected 1 h after BHB treatment and analyzed for caspase-1 and IL-1β.
The BMDM cell lysates were prepared using RIPA buffer and immediately snap frozen in liquid nitrogen. Samples were left on ice for 1 hour with vortexing every 10 min. Samples were then centrifuge at 14,000 g for 15 min, the supernatant was collected and the protein concentration was determined using the DC Protein Assay (Bio-RAD). […] The immune complexes were visualized by incubation with horseradish peroxidase-conjugated anti-rat or anti-rabbit secondary antibody (Amersham Biosciences). Immunoreactive bands were visualized by enhanced chemiluminescence (PerkinElmer Life Sciences).

Regarding `O=CC[C@@H](O)[C@H](O)[C@H](O)CO` [2DG, 2-deoxyglucose, reference compound], at NLRP3 inflammasome (LPS primed BMDMs, ATP, 2-deoxyglucose (1 mM)), the “mimicking of BHB's anti-inflammasome effect by inhibition of glycolysis” value is on record as “did not mimic”.

For the compound `Cn1cnc(N)c2ncnc1-2` [3-methyladenine, reference compound], the “effect on BHB's suppressive effects on ATP-induced NLRP3 inflammasome activation” value (shortened to “effect on BHB's suppressive effects”) on NLRP3 inflammasome (LPS primed BMDMs, ATP) is on record as “did not abrogate”. For the compound `C[C@H](O)CC(=O)O` [(S)-BHB, (S)-3-hydroxybutyric acid], the “binding to Gpr109a” value in the experiment with Gpr109a is “high affinity”. Also, at NLRP3 inflammasome (BMDMs (FIG. 6E)), the “NLRP3 inflammasome activation (Nlrp3 induced caspase-1 activation)” value is listed as “efficiently blocked”. For the same compound, on NLRP3 inflammasome (setting [1]), the anti-inflammasome activity result is recorded as “retains anti-inflammasome activity similar to bioactive D-(BHB)” and the “requirement of Gpr109a to block NLRP3” value was “does not require”. Consider `N#C/C(=C\c1ccc(-c2cc(Cl)ccc2Cl)o1)C(=O)Nc1cccc2ncccc12` [AGK2, reference compound], for which the “effect on BHB's suppressive effects” value on NLRP3 inflammasome (LPS primed BMDMs, ATP) is given as “did not abrogate”. On to `NC(=O)c1ccc[n+]([C@@H]2O[C@H](COP(=O)([O-])OP(=O)(O)OC[C@H]3O[C@@H](n4cnc5c(N)ncnc54)[C@H](O)[C@@H]3O)[C@@H](O)[C@H]2O)c1` [NAD^+, reference compound], for which the “caspase-1 activation in response to LPS and ATP” value on NLRP3 inflammasome (BMDMs, NAD+ (10 μM)) is reported as “did not block”. Consider `CC(=O)O` [acetate, reference compound], for which the “ATP-induced NLRP3 activation” value at NLRP3 inflammasome (10 mM) is given as “did not affect”. For `CC(=O)CC(=O)O` [acetoacetate, reference compound], at NLRP3 inflammasome (10 mM), the “ATP-induced NLRP3 activation” value was “did not affect”. Besides, at NLRP3 inflammasome (control and Gpr109a deficient BMDMs, LPS and ATP, 10 mM), the “effect on the NLRP3 inflammasome” value is on record as “neither butyrate nor acetoacetate affect”.

In the case of `NOCC(=O)O` [aminoxyacetate, reference compound], the “effect on BHB's suppressive effects” value at NLRP3 inflammasome (LPS primed BMDMs, ATP) is “did not affect”. In the case of `CC[C@H](C)[C@H](NC(=O)[C@H]([C@@H](C)CC)N(C)C(C)=O)C(=O)N[C@H](C(=O)N[C@@H](CC(C)C)C(=O)[C@@]1(C)CO1)[C@@H](C)O` [epoxomicin, reference compound], the “effect on BHB's suppressive effects” value on NLRP3 inflammasome (LPS primed BMDMs, ATP) is on record as “did not abrogate”. As for `OO` [hydrogen peroxide, reference compound], the “effect on BHB's suppressive effects” value at NLRP3 inflammasome (LPS primed BMDMs, ATP) is on record as “did not prevent”. The “induction of caspase-1 cleavage by ROS damage” value at NLRP3 inflammasome (LPS primed BMDMs) is “not sufficient to induce”.

As to `O=C(O)c1cccnc1` [niacin, reference compound], the “NLRP3 inflammasome activation with GPR109a ligand” value at NLRP3 inflammasome (BMDMs activated with LPS and ATP, niacin (1 mM)) is “did not block”. On to `C=C(C)[C@H]1Cc2c(ccc3c2O[C@@H]2COc4cc(OC)c(OC)cc4[C@@H]2C3=O)O1` [rotenone, reference compound], for which the “effect on BHB's suppressive effects” value on NLRP3 inflammasome (LPS primed BMDMs, ATP) was “did not prevent”. Further, the “induction of caspase-1 cleavage by ROS damage” value on NLRP3 inflammasome (LPS primed BMDMs) is on record as “not sufficient to induce”.

For the compound `CC(/C=C/C(=O)NO)=C\[C@@H](C)C(=O)c1ccc(N(C)C)cc1` [trichostatin A, reference compound], the “inflammasome activation with HDAC inhibitor” value on NLRP3 inflammasome (LPS primed and NLRP3 agonist treated macrophages, TSA (50 nM)) is “no effects”.
